Source: US20240158446A1, “CYCLIC COMPOUND HAVING SELECTIVE INHIBITORY ACTION ON KRAS OVER HRAS AND NRAS” (CHUGAI SEIYAKU KABUSHIKI KAISHA, priority 2021, published 2024)

Legend:
[1] = target: GDP-bound KRAS wild-type protein (Homo sapiens, UniProt P01116); assay: Binding to KRAS by surface plasmon resonance (SPR), Single Cycle Kinetics; details: SPR, Single Cycle Kinetics, GDP-bound KRAS wild-type protein; read-out: KRAS KD
[2] = system: human lung cancer strain NCI-H441; assay: cells; details: NCI-H441, 96 h, read-out: NCI-H441 IC50 (nM), NCI-H441 cell proliferation, 4 days, CellTiter-Glo;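 also: cell proliferation inhibition after four days measured by CellTiter-Glo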
[3] = target: GDP-bound NRAS wild-type protein (Homo sapiens, UniProt P01111); assay: Binding to NRAS by surface plasmon resonance (SPR), Single Cycle Kinetics; details: ratio of KD for GDP-bound NRAS wild-type protein to KD for KRAS, SPR
[4] = target: GDP-bound HRAS wild-type protein (Homo sapiens, UniProt P01112); assay: Binding to HRAS by surface plasmon resonance (SPR), Single Cycle Kinetics; details: ratio of KD for GDP-bound HRAS wild-type protein to KD for KRAS, SPR
Chain of GDP-bound HRAS wild-type protein (P01112 whole entry): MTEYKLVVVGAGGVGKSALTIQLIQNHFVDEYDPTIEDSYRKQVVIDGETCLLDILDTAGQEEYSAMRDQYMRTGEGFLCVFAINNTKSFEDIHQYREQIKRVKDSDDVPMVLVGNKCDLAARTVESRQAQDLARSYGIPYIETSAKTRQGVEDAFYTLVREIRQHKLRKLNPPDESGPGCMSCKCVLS

Chain of GDP-bound NRAS wild-type protein (P01111 whole entry): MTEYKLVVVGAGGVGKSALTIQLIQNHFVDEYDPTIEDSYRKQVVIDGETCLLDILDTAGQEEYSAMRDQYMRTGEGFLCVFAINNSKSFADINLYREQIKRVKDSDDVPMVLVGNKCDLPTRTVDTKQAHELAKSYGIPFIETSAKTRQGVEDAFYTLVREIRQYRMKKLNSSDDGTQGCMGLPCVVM
Chain of GDP-bound KRAS wild-type protein (P01116 whole entry): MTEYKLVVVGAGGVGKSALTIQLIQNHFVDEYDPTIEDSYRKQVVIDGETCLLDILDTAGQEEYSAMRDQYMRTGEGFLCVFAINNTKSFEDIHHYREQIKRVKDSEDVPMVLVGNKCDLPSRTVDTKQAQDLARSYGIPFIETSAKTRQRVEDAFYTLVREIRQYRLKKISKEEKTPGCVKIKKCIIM

SMILES	Kd [1] [nM]	IC50 [2] [nM]	NRAS/KRAS (KD ratio) [3]	HRAS/KRAS (KD ratio) [4]
CC[C@H](C)[C@@H]1NC(=O)[C@H](CC)N(C)C(=O)C[C@@H](C(=O)N(C)C)N(C)C(=O)[C@H](C2CCCC2)N(C)C(=O)C2(CCCC2)N(C)C(=O)[C@@H]2CCCN2C(=O)[C@H](CCc2cc(F)c(C(F)(F)F)c(F)c2)NC(=O)CN(C)C(=O)[C@H](Cc2ccc(C(F)(F)F)cc2)N2CC/C=C\C[C@@H](C2=O)N(C)C(=O)CN(C)C1=O [PP1805]	0.071	7	A (a compound having 10 or more and less than 20 is denoted as A)	A (a compound having 10 or more and less than 20 is denoted as A)
CCO[C@@H]1C[C@H]2C(=O)N(C)C3(CCCC3)C(=O)N(C)[C@@H](C3CCCC3)C(=O)N(C)[C@H](C(=O)N(C)C)CC(=O)N(C)[C@@H](CC)C(=O)N[C@@H]([C@@H](C)CC)C(=O)N(C)CC(=O)N(C)[C@H]3C/C=C\CCN(C3=O)[C@@H](Cc3ccc(C)cc3)C(=O)N(C)CC(=O)N[C@@H](CCc3cc(F)c(C(F)(F)F)c(F)c3)C(=O)N2C1 [PP1806]	0.06	4	A (a compound having 10 or more and less than 20 is denoted as A)	B (a compound having 3 or more and less than 10 is denoted as B)
CC[C@H](C)[C@@H]1NC(=O)[C@H](CC)N(C)C(=O)C[C@@H](C(=O)N(C)C)N(C)C(=O)[C@H](C2CCCC2)N(C)C(=O)C2(CCCC2)N(C)C(=O)[C@@H]2CCCN2C(=O)[C@H](CCc2cc(F)c(C(F)(F)F)c(F)c2)NC(=O)CN(C)C(=O)[C@H](Cc2ccc(C)cc2)N2CC/C=C\C[C@@H](C2=O)N(C)C(=O)CN(C)C1=O [PP1807]	0.062	5	A (a compound having 10 or more and less than 20 is denoted as A)	B (a compound having 3 or more and less than 10 is denoted as B)

Now from value to molecule, other results behind:

Kd [1] [nM]	IC50 [2] [nM]	SMILES	NRAS/KRAS (KD ratio) [3]	HRAS/KRAS (KD ratio) [4]
0.084	8.8	CCO[C@@H]1C[C@H]2C(=O)N(C)C3(CCCC3)C(=O)N(C)[C@@H](C3CCCC3)C(=O)N(C)[C@H](C(=O)N(C)C)CC(=O)N(C)[C@@H](C3CC3)C(=O)N[C@@H]([C@@H](C)CC)C(=O)N(C)CC(=O)N(C)[C@H]3C/C=C\CCN(C3=O)[C@@H](Cc3ccc(C)cc3)C(=O)N(C)CC(=O)N[C@@H](CCc3cc(F)c(C(F)(F)F)c(F)c3)C(=O)N2C1 [PP1808]	A (a compound having 10 or more and less than 20 is denoted as A)	B (a compound having 3 or more and less than 10 is denoted as B)
0.12	22.4	CC[C@H](C)[C@@H]1NC(=O)[C@H](C2CC2)N(C)C(=O)C[C@@H](C(=O)N(C)C)N(C)C(=O)[C@H](C2CCCC2)N(C)C(=O)C2(CCCC2)N(C)C(=O)[C@@H]2CCCN2C(=O)[C@H](CCc2cc(F)c(C(F)(F)F)c(F)c2)NC(=O)CN(C)C(=O)[C@H](Cc2ccc(C)cc2)N2CC/C=C\C[C@@H](C2=O)N(C)C(=O)CN(C)C1=O [PP1809]	A (a compound having 10 or more and less than 20 is denoted as A)	B (a compound having 3 or more and less than 10 is denoted as B)
0.16	4.6	CCO[C@@H]1C[C@H]2C(=O)N(C)C3(CCCC3)C(=O)N(C)[C@@H](C3CCCC3)C(=O)N(C)[C@H](C(=O)N(C)C)CC(=O)N(C)[C@@H](CC)C(=O)N[C@@H]([C@@H](C)CC)C(=O)N3CCC[C@H]3C(=O)N(C)[C@H]3C/C=C\CCN(C3=O)[C@@H](Cc3ccc(C)cc3)C(=O)N(C)CC(=O)N[C@@H](CCc3cc(F)c(C(F)(F)F)c(F)c3)C(=O)N2C1 [PP1810]	A (a compound having 10 or more and less than 20 is denoted as A)	B (a compound having 3 or more and less than 10 is denoted as B)
